The values below are quoted from earlier work in US20040116411A1, “Combination HIV therapy including camptothecin” (priority 2000, published 2004).

Series [1] has as its system HIV-1.
Series [2] concerns HIV-1 LTR. To be noted: human CD4+ lymphocytic cell line RPMI 8402.
Series [3] relates to rous sarcoma virus (RSV) promoter.
The subject of series [4] is equine infectious anemia virus (EIAA). To be noted: chronically infected cells.
In series [5] the test system is human CD4+ lymphocytic cell line RPMI 8402. To be noted: at the concentration used.
Series [6] relates to gro.
Series [7] has as its system viral-associated topoisomerase I. Conditions: HIV infection of human H9 cells, in vitro.
The test system of series [8] is Moloney murine leukemia virus (MMLV).
Series [9] relates to HIV. To be noted: by disrupting gp41 conformational changes associated with membrane fusion.

Consider `CC[C@@]1(O)C(=O)OCc2c1cc1n(c2=O)Cc2cc3c(CN(C)C)c(O)ccc3nc2-1` [Topotecan], for which the antiviral effects result in [1] (CPT-K5 cell line, PBMC acutely infected with clinical isolates, OM10.1 cells latently infected, activated by TNF-α) is on record as “antiviral effects of topotecan were observed”. Also, the “acute and chronic HIV-1 infections” value in series [1] (in vitro) was “inhibit”.
Turning to `CC[C@@]1(O)C(=O)OCc2c1cc1n(c2=O)Cc2cc3ccccc3nc2-1` [camptothecin, 20(S)-camptothecin], the “expression of downstream reporter gene under the control of HIV-1 LTR” value in [2] is reported as “inhibitory effects”. The “promoter activity of rous sarcoma virus (RSV)” value in series [3] was “did not inhibit”. In addition, the EIAA replication entry in series [4] is on record as “inhibits”. Moreover, in [5], the cell survival result was “not significantly affected”. The “expression of gro, a cellular gene” value in [6] is on record as “did not inhibit”. Besides, the “activity of the viral-associated topoisomerase I” value in series [7] was “significantly reduced”. The MMLV replication entry in [8] was “inhibits”.
As to enfuvirtide, the infection in vitro result in [9] was “inhibit infection in vitro”.
